Experimental data as given in the NIST ThermoML archive (doi:10.1016/j.tca.2004.12.026).
Numbers after ± are expanded uncertainties. Values belong to the compound of their own block, whether it stands above or below them.

Experiments:
[1] = 298.15 K; 101.33 kPa; Liquid; Vibrating tube method
[2] = excess molar enthalpy (molar enthalpy of mixing); xn = mol fraction of the nth substance listed; settings: 298.15 K, 101.33 kPa, Liquid, Flow calorimetry

- mass density [1]: 660.3 ± 0.41 kg/m3
SMILES: CCC(C)CC [3-methylpentane]

- mass density [1]: 745.38 ± 0.42 kg/m3
SMILES: CCCCCCCCCCCC [dodecane]

- excess molar enthalpy ([2]; x2 = 0.0499): 0.0137 ± 0.000382 kcal/mol
- excess molar enthalpy ([2]; x2 = 0.0999): 0.0259 ± 0.000502 kcal/mol
- excess molar enthalpy ([2]; x2 = 0.1501): 0.0382 ± 0.000621 kcal/mol
- excess molar enthalpy ([2]; x2 = 0.2): 0.0482 ± 0.000717 kcal/mol
- excess molar enthalpy ([2]; x2 = 0.2495): 0.0559 ± 0.000789 kcal/mol
- excess molar enthalpy ([2]; x2 = 0.3004): 0.0629 ± 0.00086 kcal/mol
- excess molar enthalpy ([2]; x2 = 0.3502): 0.0683 ± 0.000932 kcal/mol
- excess molar enthalpy ([2]; x2 = 0.3999): 0.072 ± 0.000956 kcal/mol
- excess molar enthalpy ([2]; x2 = 0.4505): 0.0745 ± 0.00098 kcal/mol
- excess molar enthalpy ([2]; x2 = 0.4997): 0.0752 ± 0.001 kcal/mol
- excess molar enthalpy ([2]; x2 = 0.55): 0.0741 ± 0.00098 kcal/mol
- excess molar enthalpy ([2]; x2 = 0.5996): 0.0717 ± 0.000956 kcal/mol
- excess molar enthalpy ([2]; x2 = 0.6502): 0.0684 ± 0.000932 kcal/mol
- excess molar enthalpy ([2]; x2 = 0.7003): 0.063 ± 0.00086 kcal/mol
- excess molar enthalpy ([2]; x2 = 0.75): 0.0561 ± 0.000813 kcal/mol
- excess molar enthalpy ([2]; x2 = 0.7999): 0.0476 ± 0.000717 kcal/mol
- excess molar enthalpy ([2]; x2 = 0.8501): 0.0377 ± 0.000621 kcal/mol
- excess molar enthalpy ([2]; x2 = 0.8999): 0.0263 ± 0.000502 kcal/mol
- excess molar enthalpy ([2]; x2 = 0.95): 0.0128 ± 0.000359 kcal/mol
SMILES: CCC(C)CC [3-methylpentane] + COC(C)(C)C

- mass density [1]: 735.69 ± 0.4 kg/m3
SMILES: COC(C)(C)C [2-methoxy-2-methylpropane]

- mass density [1]: 726.31 ± 0.42 kg/m3
SMILES: CCCCCCCCCC [decane]
